Assays:
CYP450 2C19 = CYP450 2C19 (Homo sapiens, UniProt P33261); assay: CYP450 inhibition; assay type: in vitro ADME; settings: 2C19
Description: (§1) The highest plasma concentrations generally occurred in 1-2 hours. […] The highest level of inhibition was ˜35% for 2C19 at a 30 μM concentration. […] Lastly, VGX-1027 is stable in human liver S9 fractions (with phase 1 and 2 cofactors) with t1/2>90 minutes, which indicates a low likelihood of metabolism in the liver.

CYP2C19 = CYP2C19 (Homo sapiens, UniProt P33261); assay: CYP450 inhibition; assay type: in vitro ADME; settings: human; 2C19 at 30 μM; read-out: highest level of inhibition
Description: as §1

CYP450 2D6 = CYP450 2D6 (Homo sapiens, UniProt P10635); assay: CYP450 inhibition; assay type: in vitro ADME
Description: as §1

CYP450 3A4 = CYP450 3A4 (Homo sapiens, UniProt P08684); assay: CYP450 inhibition; assay type: in vitro ADME
Description: as §1

CYP450 1A2 = CYP450 1A2 (Homo sapiens, UniProt P05177); assay: CYP450 inhibition; assay type: in vitro ADME
Description: as §1

CYP450 2C9 = CYP450 2C9 (Homo sapiens, UniProt P11712); assay: CYP450 inhibition; assay type: in vitro ADME
Description: as §1

Normal human PBMCs = assay: Ex vivo immune effects in PBMCs with plasma of dosed subjects; assay type: cell-based; settings: LPS 5 μg/ml + plasma of 5th day after dosing
Description: Normal human PBMCs were isolated and cultured in the presence of LPS (5 μg/ml) with or without VGX-1027 treated plasma. Plasma samples were obtained by blood collection before and on the 5th day after VGX-1027 dosing in steady state. Cell free supernateants were analyzed for production of TNF-α and IL-1β 24 hours post treatment. Cytokine levels (pg/ml) were assayed by ELISA. Representative results were correlated with pro-inflammatory cytokine inhibition.

[1] = tested on: oxazolone-induced hypersensitivity; assay: Oxazolone-induced dermatitis; assay type: in vivo, mice
[2] = tested on: endotoxin-induced uveitis; assay: Endotoxin-induced uveitis (EIU); assay type: in vivo, Lewis rats
Description: Rats were treated with VGX-1027 at 30 minutes (A) and 6 and 12 hours (B) after LPS injection […]). […] were evaluated 16 hours post LPS injection. Dexamethasone (1 mg/kg) was administered as a positive control. *p<0.0001 vs. vehicle.
Chronic intraocular inflammation denotes a heterogeneous group of diseases that is a leading cause of acquired blindness in adults. Uveitis refers to inflammation of the uvea, which is the vascular tunic or middle coat of the eye, and is responsible for approximately 3% of blindness in the United States. Unlike other autoimmune conditions with known etiologies, uveitis manifests in a number of inflammatory syndromes including Crohn's disease, Behcet's disease, sarcoidosis, and others (Yeh et al., Semin. Immunopathol., (30) 145-164 (2008)). To study the possible utility of VGX-1027 in treating ocular inflammatory conditions, we injected LPS into footpads of Lewis Rats to induce uveitis. After 16 hours post LPS injection, the rats were sacrificed, and their eyes and aqueous humor were collected to study serological, immunological, and histological signs of EIU. The development of EIU was graded on the following scale: (0) no inflammatory reaction; (1) discrete dilatation of the iris and conjunctival vessels; (2) moderate dilatation of the iris and conjunctival vessels; (3) intense iridal hyperaemia with flare in anterior chamber; and (4) same clinical signs as grade 3 plus the presence of fibrinous exudate in the pupillary area with intense flare in the anterior chamber.

CAR-induced pleurisy = assay: Carrageenan (CAR)-induced pleurisy; assay type: in vivo, mice; settings: i.p. or oral
Description: VGX-1027 was administered via the intraperitoneum or orally, and the production of exudates volume (A), PCN infiltration (B), and MPO activity (C) in the lungs was determined. Data are means±SD from 2 independent experiments.
Next, carrageenan (CAR)-induced pleurisy, a well-known model of acute inflammation mediated by leukocytes where type-1 proinflammatory cytokines such as IL-1 and TNF-α play a major pathogenic role, was evaluated. Mice that are challenged with CAR develop acute pleurisy with turbid exudates. The amount of inflammation was measured by the volume of exudates, the number of granulocytes (PCN), and the amount of Myeloperoxidase (MPO), activity in the lungs. Anti-TNF antibodies were used as a control to compare the effects of VGX-1027 with those of TNF-α blockade, which is commonly used to treat inflammatory disorders in humans.

[3] = tested on: U937s, RAWs, primary monocytes, PBMCs, Jurkats, undifferentiated CD4 T cells, 293Ts, RD cells; assay: LPS-induced TNF-α production in different cell types; assay type: cell-based
Description: (A) Cell viability was measured via the MTT assay after 48 hours of treatment. (B) TNF-α levels were measured 48 hours post LPS (5 μg/ml) stimulation. (C) CD4 T cells were stimulated with either ConA (10 μg/ml) or anti-CD3/CD28 beads (10 μg/ml), and proliferation was measured via 3H-thymidine incorporation.
Next, the production of TNF-α was measured following LPS stimulation in these different cell types. […] VGX-1027-induced effects were not observed.

[4] = elicitation phase: one hour after second oxazolone exposure
[5] = treated during or before the sensitization phase

CYP450 2C9, sequence (P11712 whole entry): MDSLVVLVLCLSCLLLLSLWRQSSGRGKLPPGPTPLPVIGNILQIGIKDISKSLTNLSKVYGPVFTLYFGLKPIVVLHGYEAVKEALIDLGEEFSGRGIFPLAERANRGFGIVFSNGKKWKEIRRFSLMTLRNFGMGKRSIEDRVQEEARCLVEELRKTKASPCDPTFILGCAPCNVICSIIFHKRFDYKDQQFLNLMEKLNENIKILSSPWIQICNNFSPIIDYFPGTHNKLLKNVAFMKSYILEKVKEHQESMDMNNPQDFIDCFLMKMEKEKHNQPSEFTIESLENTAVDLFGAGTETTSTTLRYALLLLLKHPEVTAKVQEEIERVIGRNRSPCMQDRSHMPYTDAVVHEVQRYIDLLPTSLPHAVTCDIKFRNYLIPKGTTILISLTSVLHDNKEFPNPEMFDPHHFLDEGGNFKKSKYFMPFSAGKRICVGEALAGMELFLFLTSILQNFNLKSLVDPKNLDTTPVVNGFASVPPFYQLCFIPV
CYP2C19, sequence (P33261 whole entry): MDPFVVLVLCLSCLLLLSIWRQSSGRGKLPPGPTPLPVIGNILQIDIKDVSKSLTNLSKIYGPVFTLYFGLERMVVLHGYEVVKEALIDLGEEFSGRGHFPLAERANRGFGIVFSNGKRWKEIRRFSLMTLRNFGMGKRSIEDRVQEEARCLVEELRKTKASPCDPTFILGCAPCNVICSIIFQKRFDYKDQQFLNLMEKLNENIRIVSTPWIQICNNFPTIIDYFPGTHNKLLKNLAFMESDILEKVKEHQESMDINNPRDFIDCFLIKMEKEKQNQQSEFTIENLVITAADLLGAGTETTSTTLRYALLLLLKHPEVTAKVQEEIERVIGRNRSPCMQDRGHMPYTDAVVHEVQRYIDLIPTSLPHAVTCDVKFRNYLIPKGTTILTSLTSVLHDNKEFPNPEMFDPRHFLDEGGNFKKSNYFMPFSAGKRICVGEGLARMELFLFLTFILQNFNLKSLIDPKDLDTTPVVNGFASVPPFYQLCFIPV
CYP450 2C19, sequence (P33261 whole entry): as above
CYP450 3A4, sequence (P08684 whole entry): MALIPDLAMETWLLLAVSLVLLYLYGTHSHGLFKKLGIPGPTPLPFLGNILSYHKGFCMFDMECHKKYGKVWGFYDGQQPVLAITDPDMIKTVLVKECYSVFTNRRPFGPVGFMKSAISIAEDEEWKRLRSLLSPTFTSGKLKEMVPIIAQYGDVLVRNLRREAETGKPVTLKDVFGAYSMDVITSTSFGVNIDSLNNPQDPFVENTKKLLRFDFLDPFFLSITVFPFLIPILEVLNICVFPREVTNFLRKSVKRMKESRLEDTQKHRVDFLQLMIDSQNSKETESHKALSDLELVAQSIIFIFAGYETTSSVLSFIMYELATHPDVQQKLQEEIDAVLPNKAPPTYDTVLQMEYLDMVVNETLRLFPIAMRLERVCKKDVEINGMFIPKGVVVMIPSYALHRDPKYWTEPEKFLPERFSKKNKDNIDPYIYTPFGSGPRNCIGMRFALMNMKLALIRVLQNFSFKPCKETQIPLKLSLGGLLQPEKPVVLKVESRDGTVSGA
CYP450 1A2, sequence (P05177 whole entry): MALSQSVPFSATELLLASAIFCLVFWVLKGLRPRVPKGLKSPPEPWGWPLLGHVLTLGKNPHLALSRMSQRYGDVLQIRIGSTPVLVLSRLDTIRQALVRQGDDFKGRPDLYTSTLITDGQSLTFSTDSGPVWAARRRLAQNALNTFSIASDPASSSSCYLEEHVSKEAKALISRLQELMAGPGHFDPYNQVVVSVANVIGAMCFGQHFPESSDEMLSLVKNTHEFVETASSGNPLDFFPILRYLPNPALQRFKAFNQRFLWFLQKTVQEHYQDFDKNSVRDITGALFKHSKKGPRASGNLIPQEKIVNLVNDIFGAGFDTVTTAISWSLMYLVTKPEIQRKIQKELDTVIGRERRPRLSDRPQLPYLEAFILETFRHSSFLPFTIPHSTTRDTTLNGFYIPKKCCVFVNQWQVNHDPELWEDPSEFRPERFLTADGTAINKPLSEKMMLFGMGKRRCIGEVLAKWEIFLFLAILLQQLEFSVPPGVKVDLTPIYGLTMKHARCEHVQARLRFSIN
CYP450 2D6, sequence (P10635 whole entry): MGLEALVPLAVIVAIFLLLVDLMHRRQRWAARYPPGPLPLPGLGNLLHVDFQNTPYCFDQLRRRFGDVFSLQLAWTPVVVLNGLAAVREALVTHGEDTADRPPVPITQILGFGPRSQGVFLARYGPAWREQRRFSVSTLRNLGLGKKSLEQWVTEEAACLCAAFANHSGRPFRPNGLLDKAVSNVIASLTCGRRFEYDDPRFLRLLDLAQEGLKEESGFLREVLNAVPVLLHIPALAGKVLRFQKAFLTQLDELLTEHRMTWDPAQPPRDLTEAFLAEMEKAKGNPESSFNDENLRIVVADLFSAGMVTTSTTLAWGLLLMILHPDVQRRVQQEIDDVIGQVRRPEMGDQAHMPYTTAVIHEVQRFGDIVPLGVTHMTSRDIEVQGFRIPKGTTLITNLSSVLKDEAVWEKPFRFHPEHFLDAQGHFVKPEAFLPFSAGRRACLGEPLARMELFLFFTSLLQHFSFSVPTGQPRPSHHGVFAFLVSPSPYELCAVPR

O=C(O)CC1CC(c2ccccc2)=NO1 (centres unmarked) [VGX-1027, 3-phenyl-4,5-dihydro-5-isoxazoleacetic acid]
CYP450 inhibition (CYP450 2C19): no significant inhibition
inhibition at 30 µM (CYP2C19): ~35%
CYP450 inhibition (CYP450 2D6): no significant inhibition
CYP450 inhibition (CYP450 3A4): no significant inhibition
CYP450 inhibition (CYP450 1A2): no significant inhibition
CYP450 inhibition (CYP450 2C9): no significant inhibition
IL-1β levels (Normal human PBMCs): repressed to levels comparable to the negative controls
TNF-α levels (Normal human PBMCs): repressed to levels comparable to the negative controls
ear thickness [1, 4]: significant decrease
ear weight [1, 4]: not in weight
ear thickness [1, 5]: significantly suppressed
ear weight [1, 5]: significantly suppressed
inflammatory cytokines in the aqueous humor ([2]; LPS-induced increase): decreased
protein in the aqueous humor ([2]; LPS-induced increase): decreased
clinical inflammation score ([2]; administered 30 minutes after LPS): significantly lower
clinical inflammation grade ([2]; administered 12 hours post LPS): not observed
infiltration of cells into the iris ciliary body ([2]; rat, in vivo): decreased
Myeloperoxidase (MPO) activity in the lungs (CAR-induced pleurisy): effectively decreased
number of granulocytes (PCN) (CAR-induced pleurisy): effectively decreased
prevention of CAR-induced pleurisy compared with anti-TNF (CAR-induced pleurisy): as effective as anti-TNF treatment
volume of exudates (CAR-induced pleurisy): effectively decreased
TNF-α production ([3]; 293Ts): did not affect
TNF-α production ([3]; Jurkats): did not affect
LPS-induced TNF-α production ([3]; PBMCs): inhibited
LPS-induced TNF-α production ([3]; RAWs): inhibited
TNF-α production ([3]; RD cells): did not affect
LPS-induced TNF-α production ([3]; U937s): inhibited
LPS-induced TNF-α production ([3]; primary monocytes): inhibited
TNF-α production ([3]; undifferentiated CD4 T cells): did not affect

Source: patent publication US20150064221A1, “COMPOUNDS HAVING IMMUNOMUDULATOR ACTIVITY” (priority 2012, published 2015)
